Marks after values point to notes of the source that are not given here. Where no end group is shown, it is not given here.
How the values were obtained:
Assay type in all cases: cell-based
[1] = system: human bladder transitional cell carcinoma cells T24; assay: CCK8 proliferation inhibition, T24; conditions: T24, 50 μM, 48 h
Procedure: (§1) Incubation was continued for 4 h in a cell incubator, an absorbance was measured at 450 nm, and a proliferation inhibition was calculated. Data was presented as mean±SD, and GraphPad Prism 5.0 statistical software was used. A t-test was used for comparison between two groups, while One-way Anova (Dunnett) was used for comparison among a plurality of groups.

[2] = system: human multiple myeloma cells LP-1; assay: CCK8 proliferation inhibition, LP-1; conditions: LP-1, 50 μM, 48 h
Procedure: as §1

[3] = system: human cervical cancer Hela cells; assay: Transwell metastasis inhibition, Hela; conditions: 50 μmol/L, 48 h
Procedure: (§2) Melanoma, cervical cancer, ovarian cancer, liver cancer, and lung cancer cells were seeded into transwell chambers, with 100 μL per well. Different doses of the HMMW micropeptide and the novel polypeptide HMMW15-51 were added to each chamber as a treatment group, while no drug was added to a blank group. Then, 0.6 mL of a complete culture medium containing 10% FBS was added to the lower chambers of the transwell to stimulate cell metastasis, and the cells were cultured at 5% CO2 and 37° C. for 48 h. The culture solution was discarded from the wells. The cells were fixed with methanol at room temperature for 30 min, stained with 0.1% crystal violet at room temperature for 10 min, and rinsed with clean water. The upper layer nonmetastatic cells were wiped off with a cotton swab. The cells were observed under a microscope, and four fields of view were selected to take photos and count the cells. A metastasis inhibition (MI) was calculated according to a formula: […]
(§3) where Ntest represents the number of cell metastases in the treatment group, and Ncontrol represents the number of cell metastases in the blank control group.
(§4) Data was presented as mean±SD, and GraphPad Prism 5.0 statistical software was used.

[4] = system: human peripheral blood B lymphocytes RPMI 8226 in multiple myeloma; assay: CCK8 proliferation inhibition, RPMI 8226; conditions: RPMI 8226, 50 μM, 48 h
Procedure: as §1

[5] = system: human ovarian clear cell carcinoma cells ES-2; assay: CCK8 proliferation inhibition, ES-2; conditions: ES-2, 50 μM, 48 h
Procedure: as §1

[6] = system: human colon cancer cells HT29; assay: CCK8 proliferation inhibition, HT29; conditions: HT29, 50 μM, 48 h
Procedure: as §1

[7] = system: human liver cancer cells HepG2; assay: CCK8 proliferation inhibition, HepG2; conditions: HepG2, 50 μM, 48 h
Procedure: as §1

[8] = system: human brain astrocytoma cells U87MG; assay: CCK8 proliferation inhibition, U87MG; conditions: 50 μM, 48 h
Procedure: as §1

[9] = system: human histiocytic lymphoma cells U937; assay: CCK8 proliferation inhibition, U937; conditions: U937, 50 μM, 48 h
Procedure: as §1

[10] = system: human nasopharyngeal carcinoma cells CNE-2Z; assay: CCK8 proliferation inhibition, CNE-2Z; conditions: 50 μM, 48 h
Procedure: as §1

[11] = system: human tongue squamous cell carcinoma cells CAL27; assay: CCK8 proliferation inhibition, CAL27 (Example 5); conditions: CAL27, 50 μM, 48 h
Procedure: as §1

[12] = system: human fibrosarcoma cells HT-1080; assay: CCK8 proliferation inhibition, HT-1080; conditions: HT-1080, 50 μM, 48 h
Procedure: as §1

[13] = system: human chronic myeloid leukemia cells K562; assay: CCK8 proliferation inhibition, K562; conditions: K562, 50 μM, 48 h
Procedure: as §1

[14] = system: human gastric cancer cells MGC-803; assay: CCK8 proliferation inhibition, MGC-803; conditions: MGC-803, 50 μM, 48 h
Procedure: as §1

[15] = system: human ovarian cancer Skvo3 cells; assay: Transwell metastasis inhibition, Skvo3; conditions: 48 h
Procedure: as §2, §3, §4

[16] = system: human ileocecal cancer cells HCT-8; assay: CCK8 proliferation inhibition, HCT-8; conditions: HCT-8, 50 μM, 48 h
Procedure: as §1

[17] = system: human acute promyelocytic leukemia cells NB4; assay: CCK8 proliferation inhibition, NB4; conditions: NB4, 50 μM, 48 h
Procedure: as §1

[18] = system: human uterine epidermal cancer cells MS751; assay: CCK8 proliferation inhibition, MS751; conditions: MS751, 50 μM, 48 h
Procedure: as §1

[19] = system: human papillary thyroid carcinoma cells NPPA87-1; assay: CCK8 proliferation inhibition, NPPA87-1; conditions: NPPA87-1, 50 μM, 48 h
Procedure: as §1

[20] = system: human small intestine cancer cells HIC; assay: CCK8 proliferation inhibition, HIC; conditions: 50 μM, 48 h
Procedure: as §1

[21] = system: human neuroblastoma cells SH-SY5Y; assay: CCK8 proliferation inhibition, SH-SY5Y; conditions: 50 μM, 48 h
Procedure: as §1

[22] = system: human kidney clear cell adenocarcinoma cells 786-O; assay: CCK8 proliferation inhibition, 786-O; conditions: 50 μM, 48 h
Procedure: as §1

[23] = system: human acute lymphoblastic leukemia cells CEM/C1; assay: CCK8 proliferation inhibition, CEM/C1; conditions: CEM/C1, 50 μM, 48 h
Procedure: as §1

[24] = system: human malignant melanoma cells SK-mel-2; assay: CCK8 proliferation inhibition, SK-mel-2; conditions: SK-mel-2, 50 μM, 48 h
Procedure: as §1

[25] = system: human T lymphoblastic leukemia cells Jurkat, Clone E6-1; assay: CCK8 proliferation inhibition, Jurkat, Clone E6-1; conditions: Clone E6-1, 50 μM, 48 h
Procedure: as §1

[26] = system: human lymphoma cells Raji; assay: CCK8 proliferation inhibition, Raji; conditions: 50 μM, 48 h
Procedure: as §1

[27] = system: human cholangiocarcinoma cells QBC939; assay: CCK8 proliferation inhibition, QBC939; conditions: QBC939, 50 μM, 48 h
Procedure: as §1

Sequence: MERAGVPGFSPRRSSVEAKMQSTSCSVRKSSTVTAWPAVVLLLSWGQRRGG [HMMW]
- Inhibition (%) [1]: 51.562 ± 4.780 %
- OD [1]: 0.460 ± 0.045
- Inhibition (%) [2]: 47.561 ± 4.259 %
- OD [2]: 0.462 ± 0.038
- Inhibition (%) ([3]; Hela metastasis): 88.80*** %
- Number of cell metastases ([3]; Hela): 115 ± 20.32
- Inhibition (%) [4]: 52.930 ± 4.562 %
- OD [4]: 0.578 ± 0.056
- Inhibition (%) [5]: 51.916 ± 0.690 %
- OD [5]: 0.464 ± 0.007
- Inhibition (%) [6]: 50.805 ± 2.422 %
- OD [6]: 0.479 ± 0.024
- Inhibition (%) [7]: 52.579 ± 2.504 %
- OD [7]: 0.509 ± 0.027
- Inhibition (%) [8]: 62.176 ± 2.001 %
- OD [8]: 0.365 ± 0.019
- Inhibition (%) [9]: 36.042 ± 2.134 %
- OD [9]: 0.855 ± 0.029
- Inhibition (%) [10]: 50.952 ± 4.312 %
- OD [10]: 0.472 ± 0.042
- Inhibition (%) [11]: 67.115 ± 5.457 %
- OD [11]: 0.383 ± 0.064
- Inhibition (%) [12]: 53.092 ± 4.138 %
- OD [12]: 0.432 ± 0.038
- Inhibition (%) [13]: 51.933 ± 2.838 %
- OD [13]: 0.618 ± 0.036
- Inhibition (%) [14]: 41.094 ± 3.077 %
- OD [14]: 0.675 ± 0.035
- Number of cell metastases ([15]; Skvo3, 50 μmol/L): 118 ± 26.16
- Inhibition (%) ([15]; Skvo3 metastasis, 50 μmol/L): 89.60*** %
- Inhibition (%) [16]: 48.687 ± 3.785 %
- OD [16]: 0.482 ± 0.036
- Inhibition (%) [17]: 47.692 ± 4.919 %
- OD [17]: 0.740 ± 0.070
- Inhibition (%) [18]: 49.268 ± 2.531 %
- OD [18]: 0.474 ± 0.024
- Inhibition (%) [19]: 48.192 ± 2.999 %
- OD [19]: 0.478 ± 0.028
- Inhibition (%) [20]: 50.213 ± 2.165 %
- OD [20]: 0.507 ± 0.022
- Inhibition (%) [21]: 50.542 ± 4.982 %
- OD [21]: 0.486 ± 0.049
- Inhibition (%) [22]: 62.624 ± 7.014 %
- OD [22]: 0.413 ± 0.078
- Inhibition (%) [23]: 46.518 ± 1.484 %
- OD [23]: 0.630 ± 0.017
- Inhibition (%) [24]: 46.311 ± 4.884 %
- OD [24]: 0.466 ± 0.042
- Inhibition (%) [25]: 44.307 ± 3.404 %
- OD [25]: 0.602 ± 0.037
- Inhibition (%) [26]: 54.560 ± 3.675 %
- OD [26]: 0.576 ± 0.047
- Inhibition (%) [27]: 49.490 ± 2.138 %
- OD [27]: 0.429 ± 0.018

Source: patent US20260167673A1, “NOVEL POLYPEPTIDE, POLYPEPTIDE DERIVATIVE AND USE THEREOF” (NANJING ANJI BIOTECHNOLOGY CO., LTD., priority 2023, published 2026)
